Values after ≈ are worked out from the molar mass of the structure shown. Values joined by “and” are separate entries in the source; they are usually repeats but may differ in a detail not shown here. Equal entries are not always repeated.
Tests used:
[1] = system: Typhlodromus pyri; assay: LR50; higher = less toxic; settings: not reported; mortality
[2] = system: Pimephales promelas; settings: chronic/long-term; other
[3] = system: Tagia sp.; settings: chronic/long-term; reproduction
[4] = reproduction developmental; clinical signs
[5] = system: Oncorhynchus mykiss; settings: acute; mortality
[6] = system: Rattus norvegicus
[7] = system: Canidae; settings: Dog Other, hematological
[8] = system: Colinus virginianus
[9] = system: Daphnia magna; settings: chronic/long-term; duration: 21 days; growth
[10] = system: Apis mellifera; settings: acute, mortality

## CN(C)C(=S)SSC(=S)N(C)C [Bis(dimethylaminothiocarbonyl) disulfide]
[1]
  LR50: 511 g/ha
[2]
  NOEC: 1.1 µg/L
[3]
  NOEC: 8.45 mg/kg
[4]
  NOAEL: 1.6 mg/kg-day
[5]
  LC50: 0.171 µg/mL (≈ 0.711 µM)
[6]; acute, oral, mortality
  LD50: 1800 mg/kg-day
[6]; chronic
  NOAEL: 1.6 mg/kg-day
[6]; chronic, duration: 2 years, body weight
  NOAEL: 1.5 mg/kg-day
[6]; reproduction developmental, body weight
  NOAEL: < 7.5 mg/kg-day and 3 mg/kg-day
[7]; chronic, duration: 1 years
  NOAEL: 0.84 mg/kg-day
[7]; subchronic, duration: 90 days
  NOAEL: 2 mg/kg-day
[8]; acute, oral, mortality
  LD50: 930 mg/kg-day
[8]; reproduction developmental
  NOEC: 37.5 mg/kg-day
[9]
  NOEC: 20 µg/L
[10]; dermal
  LD50: > 100 µg/piece
[10]; oral, unspecified
  LD50: > 107 µg/piece

Reference: EPA's ToxValDB 9.5 (doi:10.2903/j.efsa.2017.4700)
